Literature values, collected in patent US11826586B2, “Method for dyeing keratin material, comprising the use of an organic C1-C6-alkoxy-silane and an alkalising agent” (Henkel AG & Co. KGaA, priority 2019, dated 2023).

Details: 25° C.

SMILES	solubility in water	solubility in water (in words)
CCN(Cc1cccc(S(=O)(=O)O)c1)c1ccc(C(=C2C=CC(=[N+](CC)Cc3cccc(S(=O)(=O)O)c3)C=C2)c2ccccc2S(=O)(=O)[O-])cc1 [Acid Blue 9]	more than 20 % by weight	–
O=S(=O)(O)c1ccc(N=Nc2c(O)ccc3ccccc23)cc1 [Acid Orange 7, 4-[(2-hydroxy-1-naphthyl)azo]benzene sulphonate]	more than 7 g/L	–
O=C(O)C1=NN(c2ccc(S(=O)(=O)O)cc2)C(=O)C1N=Nc1ccc(S(=O)(=O)O)cc1 (stereo not shown) [Acid Yellow 23, 4,5-dihydro-5-oxo-1-(4-sulfophenyl)-4-((4-sulfophenyl)azo)-1H-pyrazole-3-carboxylic acid]	–	highly soluble
O=[N+]([O-])c1cc([N+](=O)[O-])c2ccc(S(=O)(=O)O)cc2c1O [Acid Yellow 9, 8-hydroxy-5,7-dinitro-2-naphthalenesulfonic acid]	above 40 g/L	–
